The values below are quoted from earlier work in US7696365B2 (Chugai Seiyaku Kabushiki Kaisha, priority 2003, dated 2010).

Each structure is given as a SMILES string. pIC50: −log10 of the molar value.

Data set [1] has as its system human breast cancer cells.
In data set [2] the test system is muscle (M) isoform of CPT-I. Conditions: read-out: IC50 of malonyl-CoA inhibition, muscle isoform.

`CCCCCCCCCCCCCCOc1ccc(C(=O)O)o1` [TOFA, 5-(tetradecyloxy)-2-furoic acid]: in data set [1] (breast carcinoma cells), the malonyl-CoA level is reported as 60 % of the control. For the same compound, the antitumor activity entry in data set [1] (human breast cancer cells and xenografts) is on record as “does not show any antitumor activity”.
As to `CC(C)(COP(=O)(O)OP(=O)(O)OC[C@H]1O[C@@H](n2cnc3c(N)ncnc32)[C@H](O)[C@@H]1OP(=O)(O)O)[C@@H](O)C(=O)NCCC(=O)NCCSC(=O)CC(=O)O` [malonyl-CoA, Malonyl-CoA], in data set [2], the pIC50 is 7.52.
